# Assay results as given in patent US4481197A, “Anti-inflammatory deoxyribosides” (Burroughs Wellcome Co., priority 1982, dated 1984).
# How the values were obtained:
# [1] = tested on: mouse neutrophil chemotaxis; test: Mouse neutrophil chemotaxis; assay type: cell-based
# Analgesic activity = settings: in vivo
# inflammation = test: Anti-inflammatory effectiveness by route; assay type: in vivo; settings: orally, systemically and locally
# [2] = tested on: carrageenan pleurisy (3 hour exudate volume); test: Carrageenan Pleurisy Assay (CPA), acute anti-inflammatory activity; assay type: in vivo; settings: statement in words
# Method: Following the procedure described by Vinegar et al in Proc. Soc. Exp. Biol. Med.,143, 711, (1973), and recently modified (Vinegar et al., Eur. J. Rheum. Inflam. 1, 204 (1978)) the acute anti-inflammatory activity of 4-amino-1-(2-deoxy-β-D-ribofuranosyl)-1H-imidazo-[4,5-c]-pyridine was compared with that of known anti-inflammatory drugs. The average 3 hour exudate volume for each drug-treated group was determined and the % inhibition relative to solvent-fed control animals calculated, the ED50 (mg/kg of body weight) being the dose required to reduce the 3 hour exudate volume by 50%. There were 5 animals in each drug-treated group and the control group.
# [3] = Side effects / liver damage in animal models; settings: in vivo
# [4] = tested on: microbial purine nucleoside phosphorylase; settings: Doskocil and Holy 1977; cited from earlier work
structure (smiles),measurement,setting,value
"Nc1nccc2c1ncn2[C@H]1C[C@H](O)[C@@H](CO)O1 [4-amino-1-(2-deoxy-β-D-ribofuranosyl)-1H-imidazo-[4,5-c]-pyridine]",inhibition of mouse neutrophil chemotaxis,[1],potent inhibitor
same,analgesic activity per se,Analgesic activity,no analgesic activity per se
same,effectiveness as anti-inflammatory agent,inflammation,effective
same,inhibition of carrageenan-induced pleurisy,[2],potent inhibitor
same,"side effects associated with prostaglandin inhibitors (gastric damage, inhibition of platelet aggregation)",[3],free of the side effects
same,side effects of the anti-inflammatory steroids,[3],free of the side effects
Nc1ncnc2c1ccn2[C@@H]1O[C@H](CO)[C@@H](O)[C@H]1O [7-deazaadenosine],substrate for microbial purine nucleoside phosphorylase,[4],not to be substrates
OC[C@H]1O[C@@H](n2ccc3c(O)ncnc32)[C@H](O)[C@@H]1O [7-deazainosine],substrate for microbial purine nucleoside phosphorylase,[4],not to be substrates
Nc1nc2c(nnn2[C@@H]2O[C@H](CO)[C@@H](O)[C@H]2O)c(=O)[nH]1 [S-azaguanosine],substrate for microbial purine nucleoside phosphorylase,[4],not to be substrates
